Data as given in patent US20250288704A1, “CXCR4-LIGANDS FOR DIAGNOSTIC AND THERAPEUTIC USE AND PRECURSORS THEREOF” (priority 2021, published 2025).
Positions of bridges follow the written chain, without caps; N, C: chain ends. Non-standard residues stand in square brackets, D forms with d. Residues, ends and D or L forms follow the SMILES beside them. Groups on a side chain read outwards from the residue. Chains are numbered I, II in the order given. *: point of attachment. X2 = OC[C@H]1O[C@@H](O[C@H]2[C@H](O)[C@@H](O)[C@H](*)O[C@@H]2CO)[C@H](O)[C@@H](O)[C@H]1O; X3 = OCC1OC(OC2C(CO)OC(*)C(O)C2O)C(O)C(O)C1O; 2Nal = N[C@@H](Cc1ccc2ccccc2c1)C(=O)O; dCit = NC(=O)NCCC[C@@H](N)C(=O)O; dNMeOrn = CN[C@H](CCCN)C(=O)O; d(hCys) = N[C@H](CCS)C(=O)O; HYNIC = NNc1ccc(C(=O)*)cn1; Mercaptoacetyl = O=C(CS)*; X4 = OCC1OC(*)C(O)C(O)C1O; 4Abz = Nc1ccc(C(=O)O)cc1; dDap = NC[C@@H](N)C(=O)O

What was measured:
[1] = tested on: CXCR4-expressing Chem_1 cells; test: Determination of internalization, dual tracer with 125I-Fc-131; format: cell-based; conditions: for Cell-bound [%] / Internalized [%]: of total cellular activity
In short: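 Receptor blockade used AMD3100 (1 mM stock) versus medium-treated wells, triplicate per time point, in Chem_1 cells cultured at 37 °C in DMEM-F12/10% FBS. Activity of supernatant, surface-bound and internalized (1 M NaOH) fractions measured by γ-counter, corrected for non-specific uptake and normalised to standard ligand.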

[2] = Octanol/PBS partition coefficient (logD7.4); format: physicochemical; conditions: n-octanol/PBS pH 7.4, radiolabeled compound
Experimental: The tubes were vortexed at maximum speed for 3 min to ensure equilibrium before centrifugation at 15.000×g for 5 min on a Biofuge 15 from Heraeus Holding GmbH (Osterode, Germany). An aliquot of 100 μL of each fraction was measured in the γ-counter and the log D7.4 calculated as follows: […]

[3] = Biodistribution in Jurkat tumor-bearing CB-17 SCID mice; format: in vivo; conditions: female, CB-17 SCID, mouse, in vivo, iv, total radioactivity
In short: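 Radioligand (125I, 177Lu, 99mTc, 18F or 68Ga label; roughly 0.5-20 MBq, 0.02-0.20 nmol) was injected intravenously via tail vein. Hosts were CB17-SCID mice with subcutaneous Jurkat tumors of 5-8 mm, 4-10 weeks post-inoculation. Dissected organs were weighed and counted in a γ-counter.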

[4] = target: T1, CXCR4 (Homo sapiens, UniProt P61073); test: Determination of inverse IC50 (invIC50): radiolabeled peptide displaced by Fc-131 on Jurkat cells
Experimental: For in vitro experiments, cells were counted in a hemocytometer using trypan blue as contrast agent. The cell suspension was centrifuged, and the pellet resuspended in HBSS (+1 wt % BSA) to a concentration of 2 mio cells/mL. 8×3 polystyrene tubes were loaded with 25 μL of the standard ligand ^125I-Fc-131 (see 4.1, 1.00 nM in HBSS) and 25 μL of the ligand to investigate in the respective concentration (10^−4-10^−10 M, n=3 for each concentration). 200 μL of cell suspension (400.000 cells per well) were added to obtain a final peptide concentration range of 10^−5-10^−11 M. The tubes were cooled for 2 h at 8° C. to prevent internalization. The experiment was stopped by removal of the supernatant. 200 μL HBSS were added onto the cells, the suspension centrifuged, and the supernatant pooled with the respective first fractions. This step was repeated once more before the tubes containing the supernatants and the ones containing the cell pellets were subjected to activity measurement in the γ-counter.
For the determination of inverse IC50 (invIC50) values the protocol for the determination of regular IC50 values was resumed with minor changes. The peptide under investigation was radioactively labeled and a stock solution was prepared in HBSS (2.00 nM). A concentration gradient of the standard ligand Fc-131 was prepared in HBSS (10^−4-10^−10 M). A cell tube was then containing 25 μL of the radioactive peptide solution, 25 μL of the respective Fc-131 solution and 200 μL cell suspension (400.000 cells). The experiment was conducted as described above.

[5] = target: T1, CXCR4; test: Determination of IC50: competition with 125I-Fc-131 on CXCR4-positive Jurkat cells; format: binding; design: CXCR4-positive Jurkat T lymphocyte cells were grown in Gibco's RPMI 1640 GlutaMAX medium; endogenous in cells; host or cells: Jurkat T lymphocyte cells (whole cells in suspension, 400.000 per tube);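 further: test compound at 10^−5 to 10^−11 M competed for 2 h at 8 °C with the radioligand on 400,000 cells per well, bound versus free activity measured by γ-counting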
Experimental: For in vitro experiments, cells were counted in a hemocytometer using trypan blue as contrast agent. The cell suspension was centrifuged, and the pellet resuspended in HBSS (+1 wt % BSA) to a concentration of 2 mio cells/mL. […] 200 μL of cell suspension (400.000 cells per well) were added to obtain a final peptide concentration range of 10^−5-10^−11 M. The tubes were cooled for 2 h at 8° C. to prevent internalization. The experiment was stopped by removal of the supernatant. 200 μL HBSS were added onto the cells, the suspension centrifuged, and the supernatant pooled with the respective first fractions. This step was repeated once more before the tubes containing the supernatants and the ones containing the cell pellets were subjected to activity measurement in the γ-counter.

T1 sequence (P61073 whole entry): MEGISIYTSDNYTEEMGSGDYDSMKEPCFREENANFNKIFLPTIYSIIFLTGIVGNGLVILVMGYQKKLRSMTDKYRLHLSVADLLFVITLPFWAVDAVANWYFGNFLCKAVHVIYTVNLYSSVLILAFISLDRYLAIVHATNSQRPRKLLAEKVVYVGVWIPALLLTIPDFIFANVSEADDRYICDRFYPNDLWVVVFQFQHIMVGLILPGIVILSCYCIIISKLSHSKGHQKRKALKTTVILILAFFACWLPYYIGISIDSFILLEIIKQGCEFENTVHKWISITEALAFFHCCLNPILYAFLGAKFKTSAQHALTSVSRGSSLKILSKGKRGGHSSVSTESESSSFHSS

## C[C@@H](NC(=O)[C@@H](CCCNC(=N)N)NC(=O)[C@@H](CN)NC(=O)[C@@H](CCCNC(N)=O)NC(=O)[C@@H](CCSC1OC(CO)C(OC2OC(CO)C(O)C(O)C2O)C(O)C1O)NC(=O)[C@@H](CCCNC(N)=O)NC(=O)CS)C(=O)Nc1ccc(C(=O)NCCC[C@@H]2C(=O)N[C@@H](CCCNC(=N)N)C(=O)N[C@@H](Cc3ccc4ccccc4c3)C(=O)NCC(=O)N[C@H](Cc3ccc(O)cc3)C(=O)N2C)cc1 (stereo partly shown) [Tc-CXCR4-12] (I: Mercaptoacetyl-[dCit][d(hCys)](X3)[dCit][dDap][dR][dA][4Abz] / II: cyclo([2Nal]G[dY][dNMeOrn]R); amide I:C-II:4)
[1]; 15 min
  Internalized in relation to 125I-Fc-131 [%]: 192 ± 38.1%
  Cell-bound [%]: 3.77 ± 0.83%
  Internalized [%]: 3.79 ± 0.69%
[1]; 30 min
  Internalized in relation to 125I-Fc-131 [%]: 284 ± 92.3%
  Cell-bound [%]: 8.56 ± 0.66%
  Internalized [%]: 9.64 ± 1.31%
[1]; 60 min
  Internalized in relation to 125I-Fc-131 [%]: 395 ± 72.2%
  Cell-bound [%]: 14.1 ± 0.71%
  Internalized [%]: 11.6 ± 2.01%
[1]; 120 min
  Internalization [% Fc-131]: 473 (120 min) % Fc-131
  Internalized in relation to 125I-Fc-131 [%]: 473 ± 41.9%
  Cell-bound [%]: 7.42 ± 2.12%
  Internalized [%]: 18.1 ± 0.85%
[2]
  logD7.4: −2.92 ± 0.06 (8)
[3]; % iD/g Blood
  tissue uptake at 1 h: 1.74 %ID/g
[3]; % iD/g Bone
  tissue uptake at 1 h: 0.95 %ID/g
[3]; % iD/g Heart
  tissue uptake at 1 h: 1.14 %ID/g
[3]; % iD/g Intestine
  tissue uptake at 1 h: 1.25 %ID/g
[3]; % iD/g Kidney
  tissue uptake at 1 h: 35 %ID/g
[3]; % iD/g Liver
  tissue uptake at 1 h: 11 %ID/g
[3]; % iD/g Lung
  tissue uptake at 1 h: 3.96 %ID/g
[3]; % iD/g Muscle
  tissue uptake at 1 h: 0.34 %ID/g
[3]; % iD/g Pancreas
  tissue uptake at 1 h: 0.8 %ID/g
[3]; % iD/g Spleen
  tissue uptake at 1 h: 4.72 %ID/g
[3]; % iD/g Stomach
  tissue uptake at 1 h: 2.03 %ID/g
[3]; % iD/g Tumor
  tissue uptake at 1 h: 7.39 %ID/g
[4]
  IC50: 4.82 ± 1.36 nM

## C[C@@H](NC(=O)[C@@H](CCCNC(=N)N)NC(=O)[C@@H](CN)NC(=O)c1ccc(NN)nc1)C(=O)Nc1ccc(C(=O)NCCC[C@@H]2C(=O)N[C@@H](CCCNC(=N)N)C(=O)N[C@@H](Cc3ccc4ccccc4c3)C(=O)NCC(=O)N[C@H](Cc3ccc(O)cc3)C(=O)N2C)cc1 [Tc-CXCR4-13] (cyclo([dY][dNMeOrn]([4Abz-dA-dR-dDap-HYNIC])R[2Nal]G))
[1]; 30 min
  Internalized in relation to 125I-Fc-131 [%]: 434 ± 18.8%
  Cell-bound [%]: 7.56 ± 0.38%
  Internalized [%]: 18.0 ± 0.27%
[1]; 90 min
  Internalization [% Fc-131]: 503 (90 min) % Fc-131
  Internalized in relation to 125I-Fc-131 [%]: 503 ± 16.2%
  Cell-bound [%]: 7.65 ± 0.47%
  Internalized [%]: 25.5 ± 0.57%
[2]
  logD7.4: −2.74 ± 0.03 (5)
[3]; % iD/g Blood
  tissue uptake at 1 h: 1.56 %ID/g
[3]; % iD/g Bone
  tissue uptake at 1 h: 0.81 %ID/g
[3]; % iD/g Heart
  tissue uptake at 1 h: 0.78 %ID/g
[3]; % iD/g Intestine
  tissue uptake at 1 h: 0.57 %ID/g
[3]; % iD/g Kidney
  tissue uptake at 1 h: 29.5 %ID/g
[3]; % iD/g Liver
  tissue uptake at 1 h: 2.62 %ID/g
[3]; % iD/g Lung
  tissue uptake at 1 h: 1.94 %ID/g
[3]; % iD/g Muscle
  tissue uptake at 1 h: 1.52 %ID/g
[3]; % iD/g Pancreas
  tissue uptake at 1 h: 0.36 %ID/g
[3]; % iD/g Spleen
  tissue uptake at 1 h: 2.43 %ID/g
[3]; % iD/g Stomach
  tissue uptake at 1 h: 1.98 %ID/g
[3]; % iD/g Tumor
  tissue uptake at 1 h: 8.02 %ID/g
[4]
  IC50: 4.16 ± 1.5 nM

## C[C@@H](NC(=O)[C@@H](CCCNC(=N)N)NC(=O)[C@@H](CN)NC(=O)[C@@H](CO)NC(=O)[C@@H](CCS[C@@H]1O[C@H](CO)[C@@H](O[C@@H]2O[C@H](CO)[C@H](O)[C@H](O)[C@H]2O)[C@H](O)[C@H]1O)NC(=O)[C@@H](CO)NC(=O)CS)C(=O)Nc1ccc(C(=O)NCCC[C@@H]2C(=O)N[C@@H](CCCNC(=N)N)C(=O)N[C@@H](Cc3ccc4ccccc4c3)C(=O)NCC(=O)N[C@H](Cc3ccc(O)cc3)C(=O)N2C)cc1 [Tc-CXCR4-11] (I: Mercaptoacetyl-[dS][d(hCys)](X2)[dS][dDap][dR][dA][4Abz] / II: cyclo([2Nal]G[dY][dNMeOrn]R); amide I:C-II:4)
[1]; 15 min
  Internalized in relation to 125I-Fc-131 [%]: 71.9 ± 11.4%
  Cell-bound [%]: 1.79 ± 0.36%
  Internalized [%]: 3.16 ± 0.46%
[1]; 30 min
  Internalized in relation to 125I-Fc-131 [%]: 178 ± 26.2%
  Cell-bound [%]: 3.74 ± 0.33%
  Internalized [%]: 6.98 ± 0.78%
[1]; 60 min
  Internalized in relation to 125I-Fc-131 [%]: 145 ± 19.8%
  Cell-bound [%]: 7.02 ± 0.06%
  Internalized [%]: 7.10 ± 0.84%
[1]; 120 min
  Internalization [% Fc-131]: 221 (120 min) % Fc-131
  Internalized in relation to 125I-Fc-131 [%]: 221 ± 23.4%
  Cell-bound [%]: 4.25 ± 0.67%
  Internalized [%]: 10.8 ± 1.13%
[2]
  logD7.4: −2.94 ± 0.02 (8)
[3]; % iD/g Blood
  tissue uptake at 1 h: 1.36 %ID/g
[3]; % iD/g Bone
  tissue uptake at 1 h: 0.71 %ID/g
[3]; % iD/g Heart
  tissue uptake at 1 h: 0.95 %ID/g
[3]; % iD/g Intestine
  tissue uptake at 1 h: 0.72 %ID/g
[3]; % iD/g Kidney
  tissue uptake at 1 h: 29 %ID/g
[3]; % iD/g Liver
  tissue uptake at 1 h: 5.94 %ID/g
[3]; % iD/g Lung
  tissue uptake at 1 h: 2.85 %ID/g
[3]; % iD/g Muscle
  tissue uptake at 1 h: 0.28 %ID/g
[3]; % iD/g Pancreas
  tissue uptake at 1 h: 0.48 %ID/g
[3]; % iD/g Spleen
  tissue uptake at 1 h: 2.31 %ID/g
[3]; % iD/g Stomach
  tissue uptake at 1 h: 1.16 %ID/g
[3]; % iD/g Tumor
  tissue uptake at 1 h: 6.71 %ID/g
[4]
  IC50: 2.05 ± 0.95 nM

## C[C@@H](NC(=O)[C@@H](CCCNC(=N)N)NC(=O)[C@@H](CN)NC(=O)[C@@H](CO)NC(=O)[C@@H](CO)NC(=O)[C@@H](CO)NC(=O)CS)C(=O)Nc1ccc(C(=O)NCCC[C@@H]2C(=O)N[C@@H](CCCNC(=N)N)C(=O)N[C@@H](Cc3ccc4ccccc4c3)C(=O)NCC(=O)N[C@H](Cc3ccc(O)cc3)C(=O)N2C)cc1 [Tc-CXCR4-6] (I: Mercaptoacetyl-[dS][dS][dS][dDap][dR][dA][4Abz] / II: cyclo([dY][dNMeOrn]R[2Nal]G); amide I:C-II:2)
[1]; 30 min
  Internalized in relation to 125I-Fc-131 [%]: 470 ± 17.4%
  Cell-bound [%]: 6.56 ± 0.31%
  Internalized [%]: 17.4 ± 0.40%
[1]; 90 min
  Internalization [% Fc-131]: 525 (90 min) % Fc-131
  Internalized in relation to 125I-Fc-131 [%]: 526 ± 29.0%
  Cell-bound [%]: 6.90 ± 0.29%
  Internalized [%]: 27.1 ± 0.50%
[2]
  logD7.4: −1.54 ± 0.02 (6)
[4]
  IC50: 3.67 ± 0.77 nM
[5]
  IC50: 4.97 ± 1.34 nM

## C[C@@H](NC(=O)[C@@H](CCCNC(=N)N)NC(=O)[C@@H](CN)NC(=O)[C@@H](CCSC1OC(CO)C(O)C(O)C1O)NC(=O)[C@@H](CCSC1OC(CO)C(O)C(O)C1O)NC(=O)[C@@H](CCSC1OC(CO)C(O)C(O)C1O)NC(=O)CS)C(=O)Nc1ccc(C(=O)NCCC[C@@H]2C(=O)N[C@@H](CCCNC(=N)N)C(=O)N[C@@H](Cc3ccc4ccccc4c3)C(=O)NCC(=O)N[C@H](Cc3ccc(O)cc3)C(=O)N2C)cc1 (stereo partly shown) [Tc-CXCR4-9] (I: Mercaptoacetyl-[d(hCys)](X4)[d(hCys)](X4)[d(hCys)](X4)[dDap][dR][dA][4Abz] / II: cyclo([2Nal]G[dY][dNMeOrn]R); amide I:C-II:4)
[1]; 30 min
  Internalized in relation to 125I-Fc-131 [%]: 86.4 ± 9.62%
  Cell-bound [%]: 3.69 ± 0.56%
  Internalized [%]: 7.00 ± 0.74%
[1]; 90 min
  Internalization [% Fc-131]: 103 (90 min) % Fc-131
  Internalized in relation to 125I-Fc-131 [%]: 103 ± 6.56%
  Cell-bound [%]: 3.69 ± 0.49%
  Internalized [%]: 12.5 ± 0.67%
[2]
  logD7.4: −2.56 ± 0.03 (6)
[3]; % iD/g Blood
  tissue uptake at 1 h: 1.42 %ID/g
[3]; % iD/g Bone
  tissue uptake at 1 h: 0.47 %ID/g
[3]; % iD/g Heart
  tissue uptake at 1 h: 0.87 %ID/g
[3]; % iD/g Intestine
  tissue uptake at 1 h: 1.5 %ID/g
[3]; % iD/g Kidney
  tissue uptake at 1 h: 14.8 %ID/g
[3]; % iD/g Liver
  tissue uptake at 1 h: 3.97 %ID/g
[3]; % iD/g Lung
  tissue uptake at 1 h: 2.4 %ID/g
[3]; % iD/g Muscle
  tissue uptake at 1 h: 0.24 %ID/g
[3]; % iD/g Pancreas
  tissue uptake at 1 h: 0.5 %ID/g
[3]; % iD/g Spleen
  tissue uptake at 1 h: 1.24 %ID/g
[3]; % iD/g Stomach
  tissue uptake at 1 h: 3.51 %ID/g
[3]; % iD/g Tumor
  tissue uptake at 1 h: 5.92 %ID/g
[4]
  IC50: 3.5 ± 0.65 nM
